# Like-named read-outs stand apart in the source and are kept apart here.
# Experiments:
# in vitro = conditions: human, Cytotoxicity IC50, 72 hr
# Protocol: (§1) The effect of drug added in triplicate at concentrations of from e.g., 0 to 100 uM using half log dilutions on HCV RNA-derived LUC activity and cytotoxicity. Human interferon alpha-2b is included in each run as a positive control compound. Subconfluent cultures of the ET line are plated out into 96-well plates that are dedicated for the analysis of cell numbers (cytotoxicity) or antiviral activity and the next day drugs are added to the appropriate wells. Cells are processed 72 hr later when the cells are still subconfluent. Compound cytotoxicity is assessed as the percent viable cells relative to the untreated cell controls.
# [1] = tested on: Huh7 ET (luc-ubi-neo/ET) cells; assay: in vitro; conditions: read-out: Cytotoxicity IC50; 72 hr
# Protocol: as §1
# [2] = Maximum tolerated dose study; assay type: in vivo; conditions: mice, IP, 20, 40 and 60 mg/kg daily for 5 days
# Protocol: (§2) Maximum tolerated dose studies and pharmacokinetics for several LSD1 inhibitors were assessed to determine if the compounds can be administered to mammals safely at doses that are expected to achieve therapeutic effects. In particular, Compound X was given to mice IP at 20 mg/kg, 40 mg/kg and 60 mg/kg daily for 5 days in a MTD study conducted at Leitat.
# PK studies (Cmax) = assay type: in vivo, mice; conditions: at the MTD study doses
# Protocol: as §2
# [3] = tested on: HCV RNA replicon in Huh7 ET (luc-ubi-neo/ET) cells; assay: microbe, parasite or virus in culture; assay type: cell-based
# Protocol: Anti-HCV assays were conducted at Southern Research Organization using an HCV RNA replicon with a luciferase reporter.
# Southern Research reports that they use cell line Huh7 ET (luc-ubi-neo/ET) containing a HCV RNA replicon with a luciferase (LUC) reporter. […] This composition of the replicon is shown as follows
# The HCV RNA replicon ET contains the 5′ NTR (IRES) of HCV (5′) which drives the production of a firefly luciferase (Luc), ubiquitin (Ubiq), and neomycin phosphotransferase (Neo) fusion protein. Ubiquitin cleavage releases the LUC and Neo genes. The EMCV IRES element (E-I) controls the translation of the HCV […] proteins NS3-NS5 and is located between Neo and NS3. The NS3 protein cleaves the HCV polyprotein to release the mature NS3, NS4A, NS4B, NS5A and NS5B proteins that are required for HCV replication. At the 3′ end of the replicon is the authentic 3′ NTR of HCV. The LUC reporter is used as an indirect measure of HCV replication. The activity of the LUC reporter is directly proportional to HCV RNA levels and positive control antiviral compounds behave comparably using either LUC or RNA endpoints.
# as §1
# [4] = tested on: H3K4 methylation in SH-SY5Y cells; assay: Western blot for dimethylated H3K4 in SH-SY5Y cells; assay type: cell-based
# Description: […]. B-actin was used as a loading control.
SMILES,IC50 (in vitro) [nM],IC50 [1] [nM],tolerability in MTD study [2],Cmax (PK studies (Cmax)),"EC50 ([3]; HCV RNA-derived LUC activity, 72 hr, read-out: Antiviral Activity EC50) [nM]","EC50 ([3]; Hepatitis C virus, Huh7 ET, 72 h, HCV RNA-derived LUC activity, 72 hr, read-out: Antiviral Activity EC50) [nM]","EC50 ([3]; Hepatitis C virus, Huh7 ET, read-out: anti-HCV activity in HCV RNA replication assay) [nM]",potency at increasing global dimethylated H3K4 levels as compared to tranylcypromine [4] [fold]
NC1CC1c1ccc(-c2cccc(O)c2)cc1 (centres unmarked) [Compound X],54800,50600,tolerated with acceptable toxicity,expected to result in therapeutic levels,< 320,490,300 to 500,–
NC(=O)CNC1CC1c1ccc(OCc2ccccc2)cc1 (centres unmarked) [Dual-1],–,–,–,–,–,–,–,≥ 10

# Reference: US9790196B2, “Lysine demethylase inhibitors for diseases and disorders associated with Flaviviridae” (Oryzon Genomics, S.A., priority 2010, dated 2017)
